Consider 78 compounds from the METLIN SMRT retention time set (Domingo-Almenara et al. 2019).

This data set in a line: gradient 5% acetonitrile 3 min, to 50% in 2 min, to 85% in 15 min, held 3 min, 100 µL/min. Conditions: column: Zorbax Extend-C18 2.1 x 50 mm; eluents: water / acetonitrile, 0.1% formic acid. The method in brief: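 In both positive and negative ionization mode, a quadrupole time-of-flight mass spectrometer coupled to HPLC analyzed pure standards run in mixtures of ~100 molecules. The Zorbax Extend-C18 column (2.1 × 50 mm, 1.8 μm) was operated at 100 μL/min with water and acetonitrile, each containing 0.1% formic acid. The dead volume was 40 μL and the dwell volume 900 μL. Retention time came from adduct peaks that were computationally picked and individually inspected by hand.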
As for `COc1ccccc1N1CCN(CCn2c(=O)c3c(c4ccccc4n3C)n(C)c2=O)CC1`, the RP-LC retention time turned out to be 784 s.
In turn, `Cc1ccc(S(=O)(=O)N2CCC(C(=O)NCC(=O)N3CCCc4ccccc43)CC2)cc1` showed an RP-LC retention time of 843 s.
`Cc1cccc(-c2nc3sc(N4CCCCC4)nn3c2NC(=O)c2ccnn2C)c1` showed an RP-LC retention time of 885 s.
To `CCOCCCNC(=O)c1ncoc1-c1ccccc1C(=O)N1CCCC1` belongs 686 s; to `COc1ccc(OC)c(Nc2c(-c3ccccc3)nc3cnccn23)c1`, 839 s.
With `CCCn1c(=O)sc2cc(S(=O)(=O)N3CCC(C(=O)N4CCc5ccccc54)CC3)ccc21`, the RP-LC retention time turned out to be 1020 s.
For `O=C(O)[C@H](CC(=O)N1C[C@H]2CCCC[C@H]2C1)Cc1ccccc1`, the RP-LC retention time came to 915 s.
Under `Cc1cc(S(=O)(=O)N2CCC(n3cnnc3-c3ccccc3)CC2)ccc1F` stands 840 s; under `COc1ccc(OC)c(CNS(=O)(=O)c2cc(-c3cnn4c(C)cc(C)nc34)ccc2OC)c1`, 935 s.
In the case of `COc1ccc(SCC(=O)Nc2c3c(nn2C)CCC3)cc1`, the RP-LC retention time was found to be 687 s.
Under `CCN1CCN(C(=O)C2CCN(S(=O)(=O)c3c(C)nn(-c4ccc(Cl)cc4)c3C)CC2)CC1` stands 670 s; under `CCOC(=O)c1c(C)oc2nc(C)nc(N3CCN(c4ccc(C(C)=O)cc4)CC3)c12`, 642 s; under `CC(C(=O)Nc1ccccc1C(F)(F)F)N1C(=O)c2ccccc2S1(=O)=O` (stereo not drawn), 828 s.
To `CCOc1ccc(-c2noc(CN3C(=O)COc4ccc(S(=O)(=O)CC)cc43)n2)cc1OC` belongs 873 s.
In turn, `COc1ccc(C(=O)NCC(=O)Nc2nc3ccccc3[nH]2)cc1` showed an RP-LC retention time of 606 s.
To `O=C1NCCCCCN(C(=O)Nc2ccccc2F)[C@H]2CCCC[C@@H]12` belongs 815 s; to `O=c1cc(CO)oc(C(Nc2ccccn2)c2cccc(F)c2)c1O` (stereo not drawn), 542 s; to `O=C(NCCc1csc(-c2ccc(F)cc2)n1)c1cccs1`, 913 s.
To `O=C(CN1C(=O)CC(c2ccccc2)S(=O)(=O)c2ccccc21)Nc1ccccc1F` (stereo not drawn) belongs 871 s.
Under `CC1Oc2ccc(-c3csc(NC(=O)c4cccnc4)n3)cc2N(C)C1=O` (stereo not drawn) stands 773 s.
`O=C(CNC(=O)c1cc(F)cc(F)c1)Nc1nc2ccccc2[nH]1` showed an RP-LC retention time of 642 s.
Under `Cc1cc(N2CCN(S(=O)(=O)c3ccc4cccc5c4c3CC5)CC2)nc(NC2CCCCC2)n1` stands 955 s; under `CCN1C(=O)Cc2ccccc2C1C(=O)NCc1cccs1` (stereo not drawn), 716 s; under `CCCC(NC(=O)CCc1c(-c2ccc(Cl)cc2)nc2ccccn12)c1cccs1` (stereo not drawn), 767 s.
`Cc1ccccc1S(=O)(=O)N1CCC(CCC(=O)NC2CC2)CC1` showed an RP-LC retention time of 791 s.
Regarding `CC(=O)Nc1cc(C(=O)NCc2ccc(OC(C)C)cc2)c2ccc(C)nc2c1`, the RP-LC retention time turned out to be 640 s.
Under `Cc1ccc(NC(=O)CSc2nc(N3CCCCC3)nc3ccccc23)cc1Cl` stands 852 s; under `Cc1nn(-c2ccccc2)c(C)c1S(=O)(=O)N1CCC(C(=O)Nc2cc(F)ccc2F)CC1`, 1000 s.
Under `COc1ccc(-c2nc(C3CC(=O)N(Cc4ccccc4)C3)no2)cc1` (stereo not drawn) stands 946 s; under `Cc1ccc(NC(=O)N2CC(c3nc(C)no3)C3(CCOCC3)C2)c(Cl)c1` (stereo not drawn), 796 s; under `CCn1nnc2c(SCc3cc(OC)cc(OC)c3)ncnc21`, 917 s.
As to `NC(=O)C1CCN(C(=O)c2nnn(-c3ccc(Cl)cc3)c2-c2cccnc2)CC1`, the RP-LC retention time was found to be 633 s.
Take `O=S(=O)(c1cc(-c2nnc(C3CCC3)o2)co1)N1CCN(c2ccccc2F)CC1`: the RP-LC retention time is 1070 s.
To `Cc1oc(-c2[nH]ncc2C(=O)N2CCOCC2)cc1S(=O)(=O)NCC(C)C` belongs 645 s; to `Cc1cc(NC(=O)Cn2c(=O)oc3ccccc32)n(-c2nc3c(F)cccc3s2)n1`, 1040 s.
To `O=C(Cc1cccs1)N1CCCC1c1nc(-c2cccc(Cl)c2)no1` (stereo not drawn) belongs 1050 s; to `CCOC(=O)c1nc(N(C)c2cccc(Cl)c2)c2ccccc2n1`, 982 s; to `CC(=O)Nc1ccc(C2(C(=O)NCc3ccc(Cl)cc3)CCC2)cc1`, 785 s.
To `CCOC(=O)N1CCN(CC(O)COc2ccc(Cl)cc2Cl)CC1` (stereo not drawn) belongs 589 s.
In the case of `Cc1ccc2nc(-c3ccc(O)cc3)c(Nc3ccc4c(c3)OCCO4)n2c1`, the RP-LC retention time is 646 s.
Compound `CCC(C)NC(=O)N1CCN(Cc2nc3cc(C(=O)N4CCCC4)ccc3n2C)CC1` (stereo not drawn) returned an RP-LC retention time of 581 s.
To `Cc1csc(-c2cc(S(=O)(=O)N3CCCC3)cn2CC(=O)N2CCCCC2)n1` belongs 875 s; to `O=C(Nc1ccc2c(c1)OCCO2)C1CCN(S(=O)(=O)c2ccc3[nH]c(=O)ccc3c2)CC1`, 691 s.
In turn, `COc1cccc(Cn2cccc(S(=O)(=O)N3CCCCCC3)c2=O)c1` registered an RP-LC retention time of 935 s.
Regarding `CSc1nc2ccc(NS(=O)(=O)c3ccc(Br)s3)cc2s1`, the RP-LC retention time stood at 994 s.
Under `COC(=O)c1ccc2c(=O)n(-c3ccc(C)c(F)c3)c(N3CCOCC3)nc2c1` stands 975 s.
Turning to `C=CCNC(=O)CCc1c(-c2ccc(Cl)cc2)nc2ccccn12`, the RP-LC retention time amounted to 615 s.
To `COc1ccc(-c2csc(Nc3ccc(Br)cn3)n2)cc1` belongs 1170 s.
The compound `CCOc1ccc(-c2ccc(=O)n(CCNC(=O)c3cc(C)oc3C)n2)cc1` showed an RP-LC retention time of 765 s.
Turning to `Cn1ncc2c3ccccc3n(CC(=O)N3CCN(c4ccccn4)CC3)c2c1=O`, the RP-LC retention time was found to be 591 s.
Compound `Cc1ccc(-c2nc3ccccn3c2Nc2ccc3c(c2)OCCO3)cc1` had an RP-LC retention time of 690 s.
To `Cc1ccc(Cl)cc1NC(=O)Cn1ncc2c(N3CCN(c4ccccn4)CC3)ncnc21` belongs 630 s; to `CCNC(=O)N1CC(n2cc(C(=O)NCCC3=CCCCC3)nn2)C1`, 721 s; to `N#CCn1cccc1-c1nc(-c2cccnc2)no1`, 776 s.
To `COc1ccc(Cl)cc1S(=O)(=O)N1CCC(C(=O)Nc2ccccc2F)CC1` belongs 921 s.
Under `COc1cccc(CNC(=O)c2cc3c(=O)n(C)ccc3n2C)c1` stands 663 s; under `CCOc1ccc(N2C=C(C(=O)OC)S(=O)(=O)c3ccc(F)cc32)cc1`, 856 s; under `CCN1c2cc(C(=O)NCc3cccs3)ccc2C(=O)N2CCCCC21` (stereo not drawn), 822 s.
`CCNC(=O)c1cnn(-c2cc(-c3nc(C4CC4)no3)ccn2)c1C` had an RP-LC retention time of 826 s.
Under `Cc1cccc2c(=O)n(C)c(CCC(=O)NCc3cc(F)ccc3F)nc12` stands 814 s; under `Cc1ccsc1CN1CCc2[nH]nc(C(=O)N3CCOCC3)c2C1`, 568 s; under `Cc1nnc(-c2nnc(N3CCCC3)c3ccccc23)o1`, 568 s.
To `O=C(Nc1cccc(Cl)c1)Nc1nc(CC(=O)N2CCc3ccccc32)cs1` belongs 978 s; to `O=C1/C(=C\c2ccc(O)c(O)c2)Oc2c1ccc(O[C@@H]1O[C@H](CO)[C@@H](O)[C@H](O)[C@H]1O)c2O`, 638 s.
To `Cc1nnc([C@@H]2CC(F)(F)CN2C(=O)COc2ccc(Cl)cc2)o1` belongs 779 s.
For `CCOC(=O)C1CCN(C(=O)C(C)n2c(=O)c(C(F)(F)F)nc3cc(C)c(C)cc32)CC1` (stereo not drawn), the RP-LC retention time stood at 1170 s.
As to `O=C(c1ccc2c(c1)CCCN2S(=O)(=O)c1ccccc1)N1CCCC1`, the RP-LC retention time turned out to be 852 s.
Under `Cc1ccccc1C(=O)NCCCn1cccc1` stands 762 s.
To `Cc1ccc(S(=O)(=O)N2CC(=O)N(CCC(C)C)C(C)(C(=O)NCc3ccccc3)C2)cc1` (stereo not drawn) belongs 1040 s; to `N#Cc1ccc(-c2nc(-c3ccc4c(c3)ncn4CCN3CCCC3)no2)cc1`, 638 s; to `CCOc1ccc(S(=O)(=O)N2CCC(c3noc(-c4ccc(F)cc4)n3)CC2)cc1`, 1120 s.
For the compound `O=S(=O)(c1ccc2c(c1)OCCO2)N1CCC(Cc2nc(-c3cccnc3)n[nH]2)C1` (stereo not drawn), the RP-LC retention time is 633 s.
Under `O=C(NCc1csc(-c2ccccc2)n1)C1CCN(C(=O)Nc2ccccc2Cl)CC1` stands 822 s; under `Cc1ccc(NC(=O)Nc2nccn(-c3ccc(Br)cc3)c2=O)cc1C`, 1100 s; under `Fc1ccc(-c2nnc(-c3nc(NC4CCCCC4)c4ccccc4n3)o2)cc1`, 1110 s.
To `CCCNC(=O)C1CCCN(c2ccc(SCC(=O)Nc3ccc(Cl)cc3)nn2)C1` (stereo not drawn) belongs 712 s; to `COc1ccc(-c2cc(N3CCC(NC(=O)c4ccccc4Br)C3)n[nH]2)cc1` (stereo not drawn), 688 s.
Regarding `O=C(NC1CCN(c2cc(-c3cccnc3)[nH]n2)CC1)c1ccc(F)c(Cl)c1`, the RP-LC retention time is 643 s.
